One assay has as its target T1, HIV protease (Human immunodeficiency virus type 1 group M subtype B, UniProt P04585).
T1 construct: plasmid containing HIV protease under the control of the T7 promotor; made in house; host or cells: E. coli (crude lysate, lac promoter)
Nature of the assay: Cell Free HIV Protease Inhibition Assay (gag polyprotein). The format is biochemical. Conditions: HIV gag polyprotein substrate, 30° C. An excerpt:
Procedure III: Cell Free Protease Inhibition Assay Materials:
HIV gag polyprotein corresponding to all of p17 and 78 amino acids of p24, produced by in vitro translation using rabbit reticulocyte lysate and mRNA prepared in vitro from plasmid encoding full length gag polyprotein linerized with the restriction enzyme Pst 1. (see S. Erickson-Viitanen et al., AIDS Research and Human Retroviruses, 5 (6), 577 (1989) for plasmid construction, and basis for assay).
Source of protease: Either (A) crude E. coli lysate of bacteria harboring a plasmid containing HIV protease under the control of the lac promotor, used at a final concentration of 0.5 mg/ml, or (B) inclusion bodies of E. coli harboring plasmid containing HIV protease under the control of the T7 promotor (Cheng et al., Gene, in press (1990)). Such inclusion bodies were solubilized in 8M urea, 50 mM Tris pH 8.0. Protease activity was recovered by dilution of the inclusion bodies 20-fold in buffer containing 50 mM Sodium Acetate, pH 5.5, 1 mM EDTA, 10% glycerol and 5% ethylene glycol. This protease source was used at a final concentration of 0.00875 mg/ml.
Inhibitory compounds were dissolved in sufficient DMSO to make a 2.5 mM stock concentration. All further dilutions were done in DMSO.
Into sterile test tubes were placed the following:
14 ul HIV protease in Phosphate Buffered Saline (20 mM Sodium Phosphate, 0.15M NaCl, pH 6.5).
5 μl of in vitro translation products.
Reactions were incubated at 30° C., then quenched by the addition of Sample buffer. See U. K. Laemmli, Nature, 1970, 227:680-685.
One fourth of each sample was analyzed on an 8-16% gradient denaturing acrylamide gel (Novex, Inc), according to Laemmli. Following electrophoresis, gels were fixed, impregnated with Enhance (Du Pont NEN, Boston, Mass.) and dried according to manufacturers instructions (NEN). Dried fluorographs were exposed to film and/or quantitated using an Ambis radioanalytic scanner.
Each group of test compounds was compared to the values obtained for pepstatin, a well known inhibitor of acid proteases . Inhibitory concentration for 50% inhibition (IC50) is determined from plots of log concentration inhibitor versus % inhibition of protease activity.
Biological Activity: IC50 is the concentration necessary for reducing the activity of the enzyme by 50%.

The test system of assay [1] is HIV(3B) or HIV(RF) in MT-2 human T-cells. Briefly: HIV Low Multiplicity Assay (XTT, MT-2 cells). In kind it is cell-based. To be noted: Human immunodeficiency virus 1, MT2, 168 h, 90% protection, multiplicity of infection 0.01, 7 days. The protocol: HIV Low Multiplicity Assby
MT-2, a human T-cell line, was cultured in RPMI medium supplemented with 5% (v/v) heat inactivated fetal calf serum (FCS), L-glutamine and gentamycin (GIBCO). Human immunodeficiency virus strains HIV(3B) and HIV(Rf) were propagated in H-9 cells in RPMI with 5% FCS. XTT, benzene-sulfonic acid, 3,3'-[1-[(phenylamino)carbonyl]-3,4-tetrazolium]bis(4-methoxy-6-nitro)-, sodium salt, was obtained from Starks Associates, Inc.
Test compounds were dissolved in dimethyl-sulfoxide to 5 mg/ml and serially diluted into RPMI medium to ten times the desired final concentration. MT-2 cells (5×10^4 /0.1 ml) were added to each well of a 96 well culture plate and 0.02 ml of the appropriate test compound solution was added to the cells such that each compound concentration was present in two wells. The cells and compounds were allowed to sit for 30 minutes at room temperature. HIV(3B) or HIV(RF) (~5×10^5 plaque forming units/ml) was diluted in medium and added to the cell and compound mixtures to give a multiplicity of infection of 0.01 plaque forming unit/cell. The mixtures were incubated for 7 days at 36° C., during which time the virus replicated and caused the death of unprotected cells. The percentage of cells protected from virus induced cell death was determined by the degree of metabolism of the tetrazolium dye, XTT. In living cells, XTT was metabolized to a colored formazan product which was quantitated spectrophotometrically at 450 nm. The amount of colored formazan was proportional to the number of cells protected from virus by the test compound. The concentration of compound protecting either 50% (IC50) or 90% (IC90) with respect to an uninfected cell culture was determined.

Molecules are shown by their SMILES. pIC50: −log10 of the molar value. In brackets after ≈: the same amount, converted by molar mass.

Compound `CC(C)[C@H](NC(=O)OCc1ccccc1)C(=O)N[C@@H](Cc1ccccc1)[C@H](O)[C@H](O)CN1C[C@H]2CCCC[C@H]2C[C@H]1C(=O)NC(C)(C)C` (relative stereo) [Example 3, [3-[2[1R*(R*),2R*,3S*],3a,4ab,8ab]]-(phenylmethyl)[1-[[[4-[3-[[(1,1-dimethylethyl)amino]carbonyl]octahydro-2(1H)-isoquinolinyl-2,3-dihydroxy-1-(phenylmethyl)butyl]amino]carbonyl]-2-methylpropyl]carbamate] showed a negative logarithm of the IC50 (pIC50) against HIV protease of 5.68. The IC90 in assay [1] was found to be 1.7 µg/mL (≈ 2.56 µM).
With `CC(C)(C)NC(=O)[C@@H]1C[C@@H]2CCCC[C@@H]2CN1C[C@@H](O)[C@@H](O)[C@H](Cc1ccccc1)NC(=O)[C@H](CC(N)=O)NC(=O)OCc1ccccc1` [Example 1, [3S-[2[1R*(R*),2R*,3S*],3a,4ab,8ab]]-(phenylmethyl)[3-amino-1-[[[4-[3-[[(1,1-dimethylethyl)amino]carbonyl]octahydro-2(1H)-isoquinolinyl]-2,3-dihydroxy-1(phenylmethyl)butyl]amino]carbonyl]-3-oxopropyl]carbamate], on HIV protease, the negative logarithm of the IC50 (pIC50) was 5.52. Also, in assay [1], the IC90 worked out at 2 µg/mL (≈ 2.94 µM).
For `CC(C)(C)NC(=O)[C@@H]1C[C@@H]2CCCC[C@@H]2CN1C[C@H](O)[C@H](O)[C@H](Cc1ccccc1)NC(=O)[C@H](CC(N)=O)NC(=O)c1ccc2ccccc2n1` [Example 6, [3S-[2[1R*(R*),2S*,3R*],3a,4ab,8ab]]-N1-[4-[3-[[(1,1-dimethylethyl)amino]carbonyl]octahydro-2(1H)-isoquinolinyl]-2,3-dihydroxy-1-(phenylmethyl)butyl]-2-[(2-quinolinylcarbonyl)amino]butanediamide] the same measures were under 4.75 and 10 µg/mL (≈ 14.3 µM).
Compound `CC(C)(C)NC(=O)[C@@H]1C[C@@H]2CCCC[C@@H]2CN1C[C@H](O)[C@H](O)[C@H](Cc1ccccc1)NC(=O)[C@H](CC(N)=O)NC(=O)OCc1ccccc1` [Example 5, [3S-[2[1R*(R*),2S*,3R*],3a,4ab,8ab]]-(phenylmethyl)[3-amino-1-[[[4-[3-[[(1,1-dimethylethyl)amino]carbonyl]octahydro-2(1H)-isoquinolinyl]-2,3-dihydroxy-1-(phenylmethyl)butyl]amino]carbonyl]-3-oxopropyl]carbamate] had a pIC50 at HIV protease of under 4.74. In assay [1], this compound gave a 90% effect concentration (IC90) of over 30 µg/mL.
For `CC[C@H](C)[C@H](NC(=O)OCc1ccccc1)C(=O)N[C@@H](Cc1ccccc1)[C@H](O)[C@H](O)CN1C[C@H]2CCCC[C@H]2C[C@H]1C(=O)NC(C)(C)C` [Example 4, [3S-[2[1R*(R*,R*),2R*,3S*],3a,4ab,8ab]]-(phenylmethyl)[1-[[[4-[3-[[(1,1-dimethylethyl)amino]carbonyl]octahydro-2(1H)-isoquinolinyl]-2,3-dihydroxy-1-(phenylmethyl)butyl]amino]carbonyl]-2-methylbutyl]carbamate] the same measures were 5.53 and 1 µg/mL (≈ 1.47 µM).
`CC(C)(C)NC(=O)[C@@H]1C[C@@H]2CCCC[C@@H]2CN1C[C@H](O)[C@@H](O)[C@H](Cc1ccccc1)NC(=O)[C@H](CC(N)=O)NC(=O)c1ccc2ccccc2n1` [Example 7, [3S-[2[1R*(R*),2R*,3R*],3a,4ab,8ab]]-N1-[4-[3-[[(1,1-dimethylethyl)amino]carbonyl]octahydro-2(1H)-isoquinolinyl]-2,3-dihydroxy-1-(phenylmethyl)butyl]-2-[(2-quinolinylcarbonyl)amino]butanediamide] showed a negative-log IC50 (pIC50) against HIV protease of 5.55. This compound also gave a concentration for an effect of 90% (IC90) in assay [1] of 2.2 µg/mL (≈ 3.14 µM).
The compound `CC(C)(C)NC(=O)[C@@H]1C[C@@H]2CCCC[C@@H]2CN1C[C@@H](O)[C@H](O)[C@H](Cc1ccccc1)NC(=O)[C@H](CC(N)=O)NC(=O)OCc1ccccc1` [Example 8, [3S-[2[1R*(R*),2S*,3S*],3a,4ab,8ab]]-(phenylmethyl)[3-amino-1-[[[4-[3-[[(1,1-dimethylethyl)amino]carbonyl]octahydro-2(1H)-isoquinolinyl-2,3-dihydroxy-1-(phenylmethyl)butyl]amino]carbonyl]-3-oxopropyl]carbamate] gave a pIC50 at HIV protease of under 4.74. In addition, in assay [1], the concentration for an effect of 90% (IC90) was over 30 µg/mL.
The compound `CC(C)(C)NC(=O)[C@@H]1C[C@@H]2CCCC[C@@H]2CN1C[C@@H](O)[C@H](O)[C@H](Cc1ccccc1)NC(=O)[C@H](CC(N)=O)NC(=O)c1ccc2ccccc2n1` [Example 9, [3S-[2[1R*(R*),2S*,3S*],3a,4ab,8ab]]-N1-[4-[3-[[(1,1-dimethylethyl)amino]carbonyl]octahydro-2(1H)-isoquinolinyl]-2,3-dihydroxy-1-(phenylmethyl)butyl]-2-[(2-quinolinylcarbonyl)amino]butanediamide] had a negative logarithm of the IC50 (pIC50) against HIV protease of under 4.75. Also, in assay [1], the IC90 came to 3 µg/mL (≈ 4.28 µM).
With `CC(C)(C)NC(=O)[C@@H]1C[C@@H]2CCCC[C@@H]2CN1C[C@@H](O)[C@@H](O)[C@H](Cc1ccccc1)NC(=O)[C@H](CC(N)=O)NC(=O)c1ccc2ccccc2n1` [Example 2, [3S-[2[1R*(R*),2R*,3S*],3a,4ab,8b]]-N1-[4-[3-[[(1,1-dimethylethyl)amino]carbonyl]octahydro-2(1H)-isoquinolinyl]-2,3-dihydroxy-1-(phenylmethyl)butyl]-2-[(2-quinolinylcarbonyl)amino]butanediamide], on HIV protease, the pIC50 is 6.27. In assay [1], this compound registered an IC90 of 0.3 µg/mL (≈ 0.428 µM).

Broadly, the pIC50 is the negative decadic logarithm of the IC50, by convention in mol/L. A high value points to a small IC50. Broadly, the IC90 is the point of the concentration-response curve where the effect stands at 90%.

The values are drawn from patent publication US5491149A, “Dihydroxypropylamine containing retroviral protease inhibitors” (The Du Pont Merck Pharmaceutical Company, priority 1994, dated 1996).
